Measured values: patent publication US20250179059A1 (The Regents of the University of California, priority 2021, published 2025)

Columns and labels:
[1] = molecular target: T1, human BRD4 bromodomain II (Homo sapiens, UniProt O60885); assay: Bromodomain binding assay (AlphaScreen), BRD4 BDII; details: AlphaScreen assay, Table C2; read-out: BRD4 BDII IC50
T1 construct: human BRD4 bromodomain II [based on Genbank NM_058243, residues 349-460]; host or cells: E. coli
Procedure, shortened: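 Inhibition of acetyl-H4 peptide binding to human BRD4 bromodomains is measured by bead-based proximity (AlphaScreen) in pH 7.5 HEPES buffer containing 0.05% CHAPS and 0.1% BSA. Ten compound concentrations in 3-fold steps give competitive binding IC50s.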

[2] = test system: human SKM-1 acute myeloid leukemia cells; assay: SKM-1 antiproliferation cell-based assay (ATPlite); details: Homo sapiens, SKM-1, 96 h, SKM-1 antiproliferation assay, 4 days, Table C2
Procedure, shortened: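 Log-phase cells in RPMI 1640/15% FBS were seeded at 34722 cells/mL and exposed for 4 days to nine-concentration DMSO serial dilutions in triplicate. Viability was read as ATP luminescence (ATPlite 1step), and IC50 values came from variable-slope non-linear regression.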

IC50 [1] [nM] | GI50 [2] [nM] | Compound
0.01 to 1 | 0.3 to 30 | CC(C)N1CCN(c2cc(-c3cc(F)cc(-c4ccc(-n5ccn(C)c5=O)c(Cl)c4)c3O)ccc2F)CC1 [Example 720, 1-(3-chloro-4″,5′-difluoro-2′-hydroxy-3″-(4-isopropylpiperazin-1-yl)-[1,1′:3′,1″-terphenyl]-4-yl)-3-methyl-1H-imidazol-2(3H)-one]
0.01 to 1 | 30 to 300 | Cn1ccn(-c2ccc(-c3cc(F)cc(-c4ccnc(N5CC6CC6(N)C5)c4)c3O)cc2Cl)c1=O (stereo not drawn) [Example 721, 1-(3′-(2-(1-amino-3-azabicyclo[3.1.0]hexan-3-yl)pyridin-4-yl)-3-chloro-5′-fluoro-2′-hydroxy-[1,1′-biphenyl]-4-yl)-3-methyl-1H-imidazol-2(3H)-one]
0.01 to 1 | 0.3 to 30 | Cc1ncc(-c2cc(F)cc(-c3ccc(-n4ccn(C)c4=O)c(Cl)c3)c2O)cc1N1CCN(C(C)C)CC1 [Example 722, 1-(3-chloro-5′-fluoro-2′-hydroxy-3′-(5-(4-isopropylpiperazin-1-yl)-6-methylpyridin-3-yl)-[1,1′-biphenyl]-4-yl)-3-methyl-1H-imidazol-2(3H)-one]
1 to 10 | 0.3 to 30 | Cn1cc(-c2cc(F)cc(-c3ccc(-n4ccn(C)c4=O)c(Cl)c3)c2O)cc(N2CCC(C)(N)C2)c1=O (stereo not drawn) [Example 723, 3-(3-amino-3-methylpyrrolidin-1-yl)-5-(3′-chloro-5-fluoro-2-hydroxy-4′-(3-methyl-2-oxo-2,3-dihydro-1H-imidazol-1-yl)-[1,1′-biphenyl]-3-yl)-1-methylpyridin-2(1H)-one]
0.01 to 1 | 0.3 to 30 | COCC(C)(C)N1CCN(c2cc(-c3cc(F)cc(-c4ccc(-n5ccn(C)c5=O)c(Cl)c4)c3O)ccn2)CC1 [Example 724, 1-(3-chloro-5′-fluoro-2′-hydroxy-3′-(2-(4-(1-methoxy-2-methylpropan-2-yl)piperazin-1-yl)pyridin-4-yl)-[1,1′-biphenyl]-4-yl)-3-methyl-1H-imidazol-2(3H)-one]
1 to 10 | 30 to 300 | Cn1cc(-c2cc(F)cc(-c3ccc(-n4ccn(C)c4=O)c(Cl)c3)c2O)cc(N2CCC(C)(O)C2)c1=O (stereo not drawn) [Example 725, 5-(3′-chloro-5-fluoro-2-hydroxy-4′-(3-methyl-2-oxo-2,3-dihydro-1H-imidazol-1-yl)-[1,1′-biphenyl]-3-yl)-3-(3-hydroxy-3-methylpyrrolidin-1-yl)-1-methylpyridin-2(1H)-one]
0.01 to 1 | 0.3 to 30 | Cn1ccn(-c2ccc(-c3cc(F)cc(-c4ccnc(N5C[C@@H](O)[C@H](O)C5)c4)c3O)cc2Cl)c1=O [Example 726, 1-(3-chloro-3′-(2-((3R,4R)-3,4-dihydroxypyrrolidin-1-yl)pyridin-4-yl)-5′-fluoro-2′-hydroxy-[1,1′-biphenyl]-4-yl)-3-methyl-1H-imidazol-2(3H)-one]
0.01 to 1 | 0.3 to 30 | CC(C)N1CCC2CN(c3cc(-c4cc(F)cc(-c5ccc(-n6ccn(C)c6=O)c(Cl)c5)c4O)ccn3)CC21 (stereo not drawn) [Example 727, 1-(3-chloro-5′-fluoro-2′-hydroxy-3′-(2-(1-isopropylhexahydropyrrolo[3,4-b]pyrrol-5(1H)-yl)pyridin-4-yl)-[1,1′-biphenyl]-4-yl)-3-methyl-1H-imidazol-2(3H)-one]
1 to 10 | 0.3 to 30 | Cn1ccn(-c2ccc(-c3cc(F)cc(-c4cncc(N5CC[C@@](C)(O)C5)c4)c3O)cc2Cl)c1=O [Example 728, (R)-1-(3-chloro-5′-fluoro-2′-hydroxy-3′-(5-(3-hydroxy-3-methylpyrrolidin-1-yl)pyridin-3-yl)-[1,1′-biphenyl]-4-yl)-3-methyl-1H-imidazol-2(3H)-one]
0.01 to 1 | 0.3 to 30 | Cn1ccn(-c2ccc(-c3cc(F)cc(-c4cncc(N5CC[C@](C)(O)C5)c4)c3O)cc2Cl)c1=O [Example 729, (S)-1-(3-chloro-5′-fluoro-2′-hydroxy-3′-(5-(3-hydroxy-3-methylpyrrolidin-1-yl)pyridin-3-yl)-[1,1′-biphenyl]-4-yl)-3-methyl-1H-imidazol-2(3H)-one]
0.01 to 1 | 0.3 to 30 | Cn1ccn(-c2ccc(-c3cc(F)cc(-c4ccnc(N5CCC(O)(CO)C5)c4)c3O)cc2Cl)c1=O (stereo not drawn) [Example 731, 1-(3-chloro-5′-fluoro-2′-hydroxy-3′-(2-(3-hydroxy-3-(hydroxymethyl)pyrrolidin-1-yl)pyridin-4-yl)-[1,1′-biphenyl]-4-yl)-3-methyl-1H-imidazol-2(3H)-one]
1 to 10 | 0.3 to 30 | COc1cc(-c2cc(F)cc(-c3ccc(-n4ccn(C)c4=O)c(Cl)c3)c2O)cc(N2CCN(C(C)(C)C)CC2)n1 [Example 732, 1-(3′-(2-(4-(tert-butyl)piperazin-1-yl)-6-methoxypyridin-4-yl)-3-chloro-5′-fluoro-2′-hydroxy-[1,1′-biphenyl]-4-yl)-3-methyl-1H-imidazol-2(3H)-one]
1 to 10 | 30 to 300 | COCC(COC)N1CCN(c2cc(-c3cc(F)cc(-c4ccc(-n5ccn(C)c5=O)c(Cl)c4)c3O)ccn2)CC1 [Example 733, 1-(3-chloro-3′-(2-(4-(1,3-dimethoxypropan-2-yl)piperazin-1-yl)pyridin-4-yl)-5′-fluoro-2′-hydroxy-[1,1′-biphenyl]-4-yl)-3-methyl-1H-imidazol-2(3H)-one]
0.01 to 1 | 0.3 to 30 | Cn1ccn(-c2ccc(-c3cc(F)cc(-c4cccc(N5CCN(C(C)(C)C)CC5)c4)c3O)cc2Cl)c1=O [Example 734, 1-(3″-(4-(tert-butyl)piperazin-1-yl)-3-chloro-5′-fluoro-2′-hydroxy-[1,1′:3′,1″-terphenyl]-4-yl)-3-methyl-1H-imidazol-2(3H)-one]
0.01 to 1 | 0.3 to 30 | Cn1ccn(-c2ccc(-c3cc(F)cc(-c4cc(N5CCN(C(C)(C)C)CC5)n(C)c(=O)c4)c3O)cc2Cl)c1=O [Example 735, 6-(4-(tert-butyl)piperazin-1-yl)-4-(3′-chloro-5-fluoro-2-hydroxy-4′-(3-methyl-2-oxo-2,3-dihydro-1H-imidazol-1-yl)-[1,1′-biphenyl]-3-yl)-1-methylpyridin-2(1H)-one]
0.01 to 1 | 0.3 to 30 | Cn1ccn(-c2ccc(-c3cc(F)cc(-c4ccnc(N5CCC6(CCC(=O)N6)C5)c4)c3O)cc2Cl)c1=O (stereo not drawn) [Example 736, 7-(4-(3′-chloro-5-fluoro-2-hydroxy-4′-(3-methyl-2-oxo-2,3-dihydro-1H-imidazol-1-yl)-[1,1′-biphenyl]-3-yl)pyridin-2-yl)-1,7-diazaspiro[4.4]nonan-2-one]
0.01 to 1 | 0.3 to 30 | CCC1(O)CCN(c2cc(-c3cc(F)cc(-c4ccc(-n5ccn(C)c5=O)c(Cl)c4)c3O)ccn2)C1 (stereo not drawn) [Example 737, 1-(3-chloro-3′-(2-(3-ethyl-3-hydroxypyrrolidin-1-yl)pyridin-4-yl)-5′-fluoro-2′-hydroxy-[1,1′-biphenyl]-4-yl)-3-methyl-1H-imidazol-2(3H)-one]
0.01 to 1 | 0.3 to 30 | COc1ncc(-c2cc(F)cc(-c3ccc(-n4ccn(C)c4=O)c(Cl)c3)c2O)cc1N1CCN(C(C)C)CC1 [Example 738, 1-(3-chloro-5′-fluoro-2′-hydroxy-3′-(5-(4-isopropylpiperazin-1-yl)-6-methoxypyridin-3-yl)-[1,1′-biphenyl]-4-yl)-3-methyl-1H-imidazol-2(3H)-one]
0.01 to 1 | 0.3 to 30 | Cn1ccn(-c2ccc(-c3cc(F)cc(-c4ccnc(N5C[C@@H](O)[C@@H](O)C5)c4)c3O)cc2Cl)c1=O [Example 739, 1-(3-chloro-3′-(2-((3S,4R)-3,4-dihydroxypyrrolidin-1-yl)pyridin-4-yl)-5′-fluoro-2′-hydroxy-[1,1′-biphenyl]-4-yl)-3-methyl-1H-imidazol-2(3H)-one]
0.01 to 1 | 0.3 to 30 | CN(C)C1(C)CCN(c2cc(-c3cc(F)cc(-c4ccc(-n5ccn(C)c5=O)c(Cl)c4)c3O)ccn2)C1 (stereo not drawn) [Example 741, 1-(3-chloro-3′-(2-(3-(dimethylamino)-3-methylpyrrolidin-1-yl)pyridin-4-yl)-5′-fluoro-2′-hydroxy-[1,1′-biphenyl]-4-yl)-3-methyl-1H-imidazol-2(3H)-one]
0.01 to 1 | 0.3 to 30 | Cn1ccn(-c2ccc(-c3cc(F)cc(-c4cncc(N5CC[C@@](C)(N)C5)c4)c3O)cc2Cl)c1=O [Example 742, (R)-1-(3′-(5-(3-amino-3-methylpyrrolidin-1-yl)pyridin-3-yl)-3-chloro-5′-fluoro-2′-hydroxy-[1,1′-biphenyl]-4-yl)-3-methyl-1H-imidazol-2(3H)-one]
0.01 to 1 | 0.3 to 30 | Cn1ccn(-c2ccc(-c3cc(F)cc(-c4ccnc(N5CC(O)C6(CC6)C5)c4)c3O)cc2Cl)c1=O (stereo not drawn) [Example 743, 1-(3-chloro-5′-fluoro-2′-hydroxy-3′-(2-(7-hydroxy-5-azaspiro[2.4]heptan-5-yl)pyridin-4-yl)-[1,1′-biphenyl]-4-yl)-3-methyl-1H-imidazol-2(3H)-one]

Compound | IC50 [1] [nM] | GI50 [2] [nM]
CC(C)N1C2CCC1CN(c1cc(-c3cc(F)cc(-c4ccc(-n5ccn(C)c5=O)c(Cl)c4)c3O)ccn1)C2 [Example 730, 1-(3-chloro-5′-fluoro-2′-hydroxy-3′-(2-(8-isopropyl-3,8-diazabicyclo[3.2.1]octan-3-yl)pyridin-4-yl)-[1,1′-biphenyl]-4-yl)-3-methyl-1H-imidazol-2(3H)-one] | 0.01 to 1 | 0.3 to 30
CC(C)N1C2CCC1CN(c1cncc(-c3cc(F)cc(-c4ccc(-n5ccn(C)c5=O)c(Cl)c4)c3O)c1)C2 [Example 740, 1-(3-chloro-5′-fluoro-2′-hydroxy-3′-(5-(8-isopropyl-3,8-diazabicyclo[3.2.1]octan-3-yl)pyridin-3-yl)-[1,1′-biphenyl]-4-yl)-3-methyl-1H-imidazol-2(3H)-one] | 0.01 to 1 | 0.3 to 30
